Reference: patent US20090300800A1, “D-Amino Acid a Selectable Marker for Barley (Hordeum Vulgare L.) Transformation” (BASF Plant Science GmbH, priority 2005, published 2009)
Where “and” joins values, the source holds several entries; their conditions need not be identical. Identical values can stand only once.

Experiments:
[1] = system: immature embryos from spring barley variety Golden Promise; assay: In vitro germination bioassay of immature embryos on medium with D-serine or D-alanine; assay type: cell-based, barley (Hordeum vulgare L.); details: for Immature Embryos (%) germinated in vitro: scored after 14 days; for concentration lethal in the bioassay: immature embryo germination; for concentration above which seedlings were susceptible to the selection: seedlings from embryos isolated without endosperms
Experimental: In order to establish effective concentrations of D-Serine and D-Alanine on inhibiting growth of tissue cultured barley cells, a bioassay system using immature embryos was applied. Immature embryos from spring barley variety Golden Promise 2 mm in length were dissected onto germination PAW-5 hormone free medium with D-serine or D-alanine in range of concentrations between 0 and 5 mM and maintained at 25° C. with a 16 h photoperiod. The number of germinated embryos with well-developed shoots and brunched roots were scored after 14 days.

wild-type plants = details: plants not expressing D-amino acid oxidase; cited from earlier work
[2] = system: immature embryos / embryogenic callus from Golden Promise; assay: Agrobacterium-mediated barley transformation with pRLM166 (dsdA), PAW media, selection on D-Serine; assay type: cell-based, barley (Hordeum vulgare L.); details: construct pRLM166, selection 5 mM D-Serine
[3] = system: immature embryos / embryogenic callus from Golden Promise; assay: Agrobacterium-mediated barley transformation with pRLM167 or pRLM205 (dsdA, dao1, PAT), PAB media, selection on D-Serine or bialaphos; assay type: cell-based, barley (Hordeum vulgare L.)
[4] = 0.5 mM in PAW-5 hormone free medium
[5] = 1 mM in PAW-5 hormone free medium
[6] = 2 mM in PAW-5 hormone free medium
[7] = 5 mM in PAW-5 hormone free medium
[8] = construct pRLM167, selection 5 mM D-Serine or 5 mg/l bialaphos

SMILES | Immature Embryos (%) germinated in vitro [1, 4] [%] | Immature Embryos (%) germinated in vitro [1, 5] [%] | Immature Embryos (%) germinated in vitro [1, 6] [%] | Immature Embryos (%) germinated in vitro [1, 7] [%] | concentration lethal in the bioassay [1] [mM] | concentration above which seedlings were susceptible to the selection [1] | toxicity to wild-type plants (wild-type plants) | TE % (Transformation Efficiency, % of transgenic plants out of the explants) [2] | TE % (Transformation Efficiency, % of transgenic plants out of the explants) [3, 8] [%] | TE % (Transformation Efficiency, % of transgenic plants out of the explants) ([3]; construct pRLM205 (dao1), selection 5 mM D-Serine) [%]
C[C@@H](N)C(=O)O [D-alanine] | 37 | 0 | 0 | 0 | 1 | > 1 mM | highly phytoptoxic to plants |  |  | 
CC[C@@H](C)[C@@H](N)C(=O)O [D-isoleucine] |  |  |  |  |  |  | not toxic to wild-type plants |  |  | 
N[C@H](CO)C(=O)O [D-serine] | 49 | 17 | 0 | 0 | 2 | higher than 2 mM | highly phytoptoxic to plants | 2.2% and 2.1% | 4.6 | 3.6
CC(C)[C@@H](N)C(=O)O [D-valine] |  |  |  |  |  |  | not toxic to wild-type plants |  |  | 
C[C@H](NC(=O)[C@H](C)NC(=O)[C@@H](N)CCP(C)(=O)O)C(=O)O [bialaphos] |  |  |  |  |  |  |  |  | 3.4 | 
